Source: publication PMC6136660 (Steroids, 2018)

Assays:
growth and bone = test system: growth and bone; set-up: method as in PMID 24014378; details: 30 mg/kg/day, pre-clinical models; cited from earlier work
[1] = Clinical safety (treatment-emergent adverse events), SAD; format: in vivo, human
Procedure: (§1) In the SAD part of the study, 7 cohorts were to be enrolled. Eight subjects were assigned to each of Cohorts 1 to 5 and 7 and received a single oral dose of vamorolone (planned as 0.1 mg/kg, 0.3 mg/kg, 1.0 mg/kg, 3.0 mg/kg, 8.0 mg/kg, and 20.0 mg/kg, respectively) or placebo under fasted conditions. Six subjects were assigned to Cohort 6 and were administered a single oral dose of 8.0 mg/kg vamorolone within 30 min of beginning a high fat/high calorie meal.
(§2) Subjects in Cohorts 1 through 5 and 7 were randomized to receive vamorolone or placebo in a 3:1 ratio (6 subjects received vamorolone, and 2 subjects received placebo) sequentially. In Cohort 1, 3 sentinel subjects were administered vamorolone or placebo in a 2:1 ratio. Following a review of sentinel safety and tolerability data (including reported adverse events [AEs], clinical laboratory tests, vital signs, and electrocardiograms [ECGs]), the remaining 5 subjects were randomized to receive vamorolone or placebo in a 4:1 ratio and dosed no earlier than 48 h after sentinel dosing. In Cohorts 2 to 5, and 7, subjects were administered vamorolone or placebo in a 3:1 ratio. Once Cohort 5 was completed and safety data had been reviewed, subjects in Cohort 6 were administered a single oral dose of 8.0 mg/kg vamorolone within 30 min of beginning a standard high fat/high calorie meal.
After completion of all scheduled safety follow-up visits for a given cohort, a Safety Review Committee (SRC), comprised of the Principal Investigator (PI), the Sponsor’s Medical Monitor, and the Sponsor’s pharmacokineticist, reviewed all available PK and safety data (AEs, physical examination findings, ECGs, vital signs, and clinical laboratory tests) in a blinded manner for the completed cohort prior to making a decision to escalate to the next higher dose level.
In the SAD part, overall, six subjects (11%) administered vamorolone experienced a total of 10 treatment-emergent adverse events (TEAEs); no subject in the placebo group experienced any TEAEs. There was no dose-related trend in the incidence or severity of TEAEs; the dose group with the highest number of subjects reporting TEAEs was the 0.1 mg/kg dose group (2 subjects, 33%), and the highest number of TEAEs (3 events) was reported by 1 subject in the 1.0 mg/kg vamorolone dose group. In the 0.3 and 3.0 mg/kg vamorolone fasted and the 8.0 mg/kg fed dose groups, 1 subject per group (17%) experienced TEAEs, and no subjects in the 8.0 mg/kg and 20 mg/kg, fasted, dose groups experienced any TEAEs. The most common TEAEs were dizziness and headache, each reported by 2 subjects overall (4%); all other TEAEs were reported by only 1 subject (2%) and included ear pain, nausea, non-cardiac chest pain, and blood bilirubin increased. Three subjects (6%) had TEAEs that were considered possibly related to treatment. Possibly related TEAEs included nausea (1 subject, 2%), dizziness (2 subjects, 4%), and headache (2 subjects, 4%). […] All other TEAEs were mild in severity.

adrenal suppression = test system: adrenal suppression; set-up: method as in PMID 23498916, PMID 24014378, PMID 27133900; details: in vitro assays in multiple cell types; cited from earlier work
[2] = SAD food effect cohort (8 mg/kg with high fat/high calorie meal) pharmacokinetics; format: in vivo, human
Procedure: as §1, §2

[3] = Phase 1 multiple ascending dose (MAD) pharmacokinetics, 14 days once daily; format: in vivo, human; details: for CL/F: human, plasma, oral, read-out: CL/F, range of geometric mean values
Procedure: The MAD part of the study was initiated after a review of safety and PK data from SAD cohorts 1 to 6. In the MAD part, 4 cohorts containing 8 subjects each were randomized to receive vamorolone or placebo, in a 3:1 ratio, once daily (QD) for 14 days. The duration of dosing in the MAD part was determined based on the PK data from the SAD part. In each cohort, 3 sentinel subjects were administered vamorolone or placebo, in a 2:1 ratio.
The planned dose levels for the MAD part were 1.0 mg/kg (Cohort 1), 3.0 mg/kg (Cohort 2), 9.0 mg/kg (Cohort 3), and 20.0 mg/kg (Cohort 4) or until the maximum tolerated dose (MTD) was identified.
Daily doses of vamorolone (1.0, 3.0, 9.0 and 20.0 mg/kg/day) were given in the morning in a fasted state, daily for 14 days, and PK determined on day 1 (after single dose) and day 14 (after the 14th dose). Consistent with the SAD, mean plasma vamorolone concentrations and dose-related PK parameters increased in a dose related manner (Fig. 3). Log-log plots of the individual subject Cmax and AUC (inf) were linear. Although the slopes ranged from 0.827 to 0.898, the deviation from 1.0 may be a consequence of between-subject variability and not indicative of a less than dose-proportional increase in exposure.

[4] = human, plasma, single oral 8 mg/kg, fed, geometric mean (%CV)

SMILES: C[C@@H]1C[C@H]2[C@@H]3CCC4=CC(=O)C=C[C@]4(C)C3=CC[C@]2(C)[C@@]1(O)C(=O)CO [vamorolone]
- severe stunting of growth and osteopenia (growth and bone): did not
- subjects reporting TEAEs ([1]; SAD 0.1 mg/kg (2 subjects)): 33%
- subjects experiencing TEAEs ([1]; SAD 0.3 mg/kg fasted (1 subject)): 17%
- number of TEAEs ([1]; SAD 1.0 mg/kg, reported by 1 subject): 3 events
- subjects experiencing TEAEs ([1]; SAD 3.0 mg/kg fasted (1 subject)): 17%
- subjects experiencing TEAEs ([1]; SAD 8.0 mg/kg fasted): no subjects
- subjects experiencing TEAEs ([1]; SAD 8.0 mg/kg fed (1 subject)): 17%
- subjects experiencing TEAEs ([1]; SAD 20 mg/kg fasted): no subjects
- subjects experiencing TEAEs, overall ([1]; SAD, all dose groups (six subjects, 10 TEAEs)): 11%
- adrenal suppressive activity relative to traditional glucocorticoids (adrenal suppression): ~ 1%
- AUC(0-t) ratio of the geometric means ([2]; 8 mg/kg, fed vs fasted): 2.54
- AUC(inf) ratio of the geometric means ([2]; 8 mg/kg, fed vs fasted): 2.82
- Cmax ratio of the geometric means ([2]; 8 mg/kg, fed vs fasted): 2.53
- increase in bioavailability with a 40 g fat meal ([2]; 8 mg/kg, fed vs fasted): 250%
- increase in Cmax, AUC(0-t), and AUC(inf) under fed conditions ([2]; 8 mg/kg, high calorie/high fat meal (40 g fat) vs fasted): 2.5 fold
- increase in Tmax under fed conditions ([2]; 8 mg/kg, high calorie/high fat meal vs fasted): ~ 2 fold
- AUC(0-inf) [2, 4]: 10200 ng·h/mL
- AUC(0-t) [2, 4]: 10100 ng·h/mL
- Cmax [2, 4]: 1820 ng/mL
- CL/F ([2]; human, plasma, single oral 8 mg/kg, fed, geometric mean (%CV), read-out: CL/F (converted)): 13.2 mL/min/kg
- Vd/F ([2]; human, plasma, single oral 8 mg/kg, fed, geometric mean (%CV), read-out: Vz/F): 2.67 L/kg
- half-life ([2]; human, plasma, single oral 8 mg/kg, fed, geometric mean (%CV), read-out: t½ (converted)): 141 min
- k el ([2]; human, plasma, single oral 8 mg/kg, fed, geometric mean (%CV), read-out: λz (converted)): 8.19e-05 s⁻¹
- Tmax ([2]; human, plasma, single oral 8 mg/kg, fed, median): 4 h
- CL/F ([2]; single oral 8 mg/kg, fed, geometric mean (%CV)): 66.7 (28.4) (6) L/h
- drug accumulation between daily doses ([3]; Day 1 vs Day 14, once daily 14 days): essentially no drug accumulation between doses
- CL/F ([3]; MAD Day 1, across 1-20 mg/kg/day): 23.7 to 33.7 mL/min/kg
- CL/F ([3]; MAD Day 14, across 1-20 mg/kg/day): 21 to 35.8 mL/min/kg
